Experiments:
SOLNI [1] = assay: Pre-emergence herbicidal activity on SOLNI (black nightshade); type: in vivo, Solanum nigrum; conditions: lowest tested rate giving 80% or greater inhibition, approx. 14 days after planting and treating, greenhouse
Summary of the method: (§1)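 Surface-applied pre-emergence treatment (compound diluted in 1:1 acetone/water) onto seeded, soil-covered pots. Greenhouse 30/21 °C. Day ~14: % inhibition vs untreated → GR80.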

AMARE [2] = assay: Pre-emergence herbicidal activity on AMARE (redroot pigweed); type: in vivo, Amaranthus retroflexus; conditions: lowest tested rate giving 80% or greater inhibition, approx. 14 days after planting and treating, greenhouse
Summary of the method: as §1

DATST [3] = assay: Pre-emergence herbicidal activity on DATST (jimsonweed); type: in vivo, Datura stramonium; conditions: lowest tested rate giving 80% or greater inhibition, approx. 14 days after planting and treating, greenhouse
Summary of the method: as §1

CHEAL [4] = assay: Pre-emergence herbicidal activity on CHEAL (common lambsquarters); type: in vivo, Chenopodium album; conditions: lowest tested rate giving 80% or greater inhibition, approx. 14 days after planting and treating, greenhouse
Summary of the method: as §1

POROL [5] = assay: Pre-emergence herbicidal activity on POROL (common purslane); type: in vivo, Portulaca oleracea; conditions: lowest tested rate giving 80% or greater inhibition, approx. 14 days after planting and treating, greenhouse
Summary of the method: as §1

CIRAR [6] = assay: Pre-emergence herbicidal activity on CIRAR (canada thistle, seedling); type: in vivo, Cirsium arvense; conditions: lowest tested rate giving 80% or greater inhibition, approx. 14 days after planting and treating, greenhouse
Summary of the method: as §1

SETFA [7] = assay: Pre-emergence herbicidal activity on SETFA (giant foxtail); type: in vivo, Setaria faberi; conditions: lowest tested rate giving 80% or greater inhibition, approx. 14 days after planting and treating, greenhouse
Summary of the method: as §1

PANDI [8] = assay: Pre-emergence herbicidal activity on PANDI (fall panicum); type: in vivo, Panicum dichotomiflorum; conditions: lowest tested rate giving 80% or greater inhibition, approx. 14 days after planting and treating, greenhouse
Summary of the method: as §1

BRAPP [9] = assay: Pre-emergence herbicidal activity on BRAPP (broadleaf signalgrass); type: in vivo, Brachiaria platyphylla; conditions: lowest tested rate giving 80% or greater inhibition, approx. 14 days after planting and treating, greenhouse
Summary of the method: as §1

DIGSA [10] = assay: Pre-emergence herbicidal activity on DIGSA (large crabgrass); type: in vivo, Digitaria sanguinalis; conditions: lowest tested rate giving 80% or greater inhibition, approx. 14 days after planting and treating, greenhouse
Summary of the method: as §1

ABUTH [11] = assay: Post-emergence herbicidal activity on ABUTH (velvetleaf); type: in vivo, Abutilon theophrasti; conditions: post-emergence spray; lowest tested rate with 80% or greater inhibition; about 14 days after treatment
Description: (§2) All such uses, and the biological activity enabling such uses, are embraced by the term “herbicidal” herein. Tables 15 and 16 summarize results of tests conducted as described below to determine the pre-emergence herbicidal activity, in the form of a GR80 value, of illustrative compounds of this invention. […] Where herbicidal activity was evident but 80% inhibition was not achieved at the highest rate tested (typically 1000 g/ha), an asterisk (*) is shown in the following tables. Herbicidal activity evident in the form of symptoms of phytotoxicity, in the absence of at least 80% inhibition at any rate, is indicated in the tables by “phyto”. A blank cell in the following tables indicates no herbicidal or phytotoxic response at any rate tested.
(§3) In another set of tests, the post-emergence activity of compounds of this invention was evaluated on the cool season species listed above. The following procedure was used.
(§4) A pre-prepared topsoil mixture (described above) was placed in a pot and compacted to a depth of 1.0 to 1.25 cm from the top of the pot. Seeds of each of several monocotyledonous and dicotyledonous annual plant species were placed on top of the soil The seeds were covered with a mixture of 50% topsoil and 50% Rediearth™ in sufficient quantity to level-fill the pots. The pots were then placed on a greenhouse bench and subirrigated as needed until plants growing from the seeds had emerged and reached a suitable growth stage for post-emergence treatment, typically 9 to 14 days after planting.
(§5) A known amount of each test compound dissolved or suspended in an appropriate organic solvent was diluted with a 50:50 mix of acetone and water and applied to the plants by spraying with a standard spray nozzle in a spray volume of 3,100 l/ha at a spray pressure of […] (30 psig). Control plants were not sprayed.
(§6) After treatment the plants were placed in a greenhouse with a 30/21° C. day/night temperature regime and were subsequently watered as needed for growth. Approximately 14 days after treatment, the plants were observed and herbicidal efficacy recorded as percent inhibition by comparison with control plants.

SOLNI [12] = assay: Post-emergence herbicidal activity on SOLNI (black nightshade); type: in vivo, Solanum nigrum; conditions: post-emergence spray; lowest tested rate with 80% or greater inhibition; about 14 days after treatment
Description: as §2, §3, §4, §5, §6

AMARE [13] = assay: Post-emergence herbicidal activity on AMARE (redroot pigweed); type: in vivo, Amaranthus retroflexus; conditions: post-emergence spray; lowest tested rate with 80% or greater inhibition; about 14 days after treatment
Description: as §2, §3, §4, §5, §6

DATST [14] = assay: Post-emergence herbicidal activity on DATST (jimsonweed); type: in vivo, Datura stramonium; conditions: post-emergence spray; lowest tested rate with 80% or greater inhibition; about 14 days after treatment
Description: as §2, §3, §4, §5, §6

CHEAL [15] = assay: Post-emergence herbicidal activity on CHEAL (common lambsquarters); type: in vivo, Chenopodium album; conditions: post-emergence spray; lowest tested rate with 80% or greater inhibition; about 14 days after treatment
Description: as §2, §3, §4, §5, §6

CONAR [16] = assay: Post-emergence herbicidal activity on CONAR (field bindweed); type: in vivo, Convolvulus arvensis; conditions: post-emergence spray; lowest tested rate with 80% or greater inhibition; about 14 days after treatment
Description: as §2, §3, §4, §5, §6

POROL [17] = assay: Post-emergence herbicidal activity on POROL (common purslane; table head prints PORAL); type: in vivo, Portulaca oleracea; conditions: post-emergence spray; lowest tested rate with 80% or greater inhibition; about 14 days after treatment
Description: as §2, §3, §4, §5, §6

CIRAR [18] = assay: Post-emergence herbicidal activity on CIRAR (canada thistle, seedling); type: in vivo, Cirsium arvense; conditions: post-emergence spray; lowest tested rate with 80% or greater inhibition; about 14 days after treatment
Description: as §2, §3, §4, §5, §6

ECHCG [19] = assay: Post-emergence herbicidal activity on ECHCG (barnyardgrass); type: in vivo, Echinochloa crus-galli; conditions: post-emergence spray; lowest tested rate with 80% or greater inhibition; about 14 days after treatment
Description: as §2, §3, §4, §5, §6

PANMI = assay: Post-emergence herbicidal activity on PANMI (wild proso millet); type: in vivo, Panicum miliaceum; conditions: post-emergence spray; lowest tested rate with 80% or greater inhibition; about 14 days after treatment
SORHA [20] = assay: Post-emergence herbicidal activity on SORHA (johnsongrass, seedling); type: in vivo, Sorghum halepense; conditions: post-emergence spray; lowest tested rate with 80% or greater inhibition; about 14 days after treatment
Description: as §2, §3, §4, §5, §6

SETFA [21] = assay: Post-emergence herbicidal activity on SETFA (giant foxtail); type: in vivo, Setaria faberi; conditions: post-emergence spray; lowest tested rate with 80% or greater inhibition; about 14 days after treatment
Description: as §2, §3, §4, §5, §6

PANDI [22] = assay: Post-emergence herbicidal activity on PANDI (fall panicum); type: in vivo, Panicum dichotomiflorum; conditions: post-emergence spray; lowest tested rate with 80% or greater inhibition; about 14 days after treatment
Description: as §2, §3, §4, §5, §6

SORVU = assay: Post-emergence herbicidal activity on SORVU (shattercane); type: in vivo, Sorghum vulgare; conditions: post-emergence spray; lowest tested rate with 80% or greater inhibition; about 14 days after treatment
Description: as §2, §3, §4, §5, §6

BRAPP [23] = assay: Post-emergence herbicidal activity on BRAPP (broadleaf signalgrass); type: in vivo, Brachiaria platyphylla; conditions: post-emergence spray; lowest tested rate with 80% or greater inhibition; about 14 days after treatment
Description: as §2, §3, §4, §5, §6

DIGSA [24] = assay: Post-emergence herbicidal activity on DIGSA (large crabgrass); type: in vivo, Digitaria sanguinalis; conditions: post-emergence spray; lowest tested rate with 80% or greater inhibition; about 14 days after treatment
ABUTH [25] = assay: Pre-emergence herbicidal activity on ABUTH (velvetleaf); type: in vivo, Abutilon theophrasti; conditions: lowest tested rate giving 80% or greater inhibition, approx. 14 days after planting and treating, greenhouse
Summary of the method: as §1

CONAR [26] = assay: Pre-emergence herbicidal activity on CONAR (field bindweed); type: in vivo, Convolvulus arvensis; conditions: lowest tested rate giving 80% or greater inhibition, approx. 14 days after planting and treating, greenhouse
Summary of the method: as §1

ECHCG [27] = assay: Pre-emergence herbicidal activity on ECHCG (barnyardgrass); type: in vivo, Echinochloa crus-galli; conditions: lowest tested rate giving 80% or greater inhibition, approx. 14 days after planting and treating, greenhouse
Summary of the method: as §1

SORHA [28] = assay: Pre-emergence herbicidal activity on SORHA (johnsongrass, seedling); type: in vivo, Sorghum halepense; conditions: lowest tested rate giving 80% or greater inhibition, approx. 14 days after planting and treating, greenhouse
Summary of the method: as §1

| Structure (SMILES) | Pre-emergence activity (GR80) on SOLNI (SOLNI [1]) | Pre-emergence activity (GR80) on AMARE (AMARE [2]) [g/ha] | Pre-emergence activity (GR80) on DATST (DATST [3]) | Pre-emergence activity (GR80) on CHEAL (CHEAL [4]) | Pre-emergence activity (GR80) on PORAL (POROL [5]) | Pre-emergence activity (GR80) on CIRAR (CIRAR [6]) | Pre-emergence activity (GR80) on SETFA (SETFA [7]) | Pre-emergence activity (GR80) on PANDI (PANDI [8]) | Pre-emergence activity (GR80) on BRAPP (BRAPP [9]) | Pre-emergence activity (GR80) on DIGSA (DIGSA [10]) | Post-emergence activity (GR80) ABUTH (ABUTH [11]) | Post-emergence activity (GR80) SOLNI (SOLNI [12]) | Post-emergence activity (GR80) AMARE (AMARE [13]) | Post-emergence activity (GR80) DATST (DATST [14]) | Post-emergence activity (GR80) CHEAL (CHEAL [15]) | Post-emergence activity (GR80) CONAR (CONAR [16]) | Post-emergence activity (GR80) PORAL (POROL [17]) | Post-emergence activity (GR80) CIRAR (CIRAR [18]) | Post-emergence activity (GR80) ECHCG (ECHCG [19]) | Post-emergence activity (GR80) PANMI (PANMI) | further results |
| --- | --- | --- | --- | --- | --- | --- | --- | --- | --- | --- | --- | --- | --- | --- | --- | --- | --- | --- | --- | --- | --- |
| C[C@H](CNC(=O)c1cccc(C(F)(F)F)c1)NC(=O)Oc1ccc(Cl)cc1 [Example 231] | phyto | 750 | phyto | phyto | phyto | phyto | phyto | phyto | phyto | 1000 g/ha | [empty] | [empty] | phyto | * (Where herbicidal activity was evident but 80% inhibition was not achieved at the highest rate tested (typically 1000 g/ha), an asterisk (*) is shown) | phyto | phyto | phyto | [empty] | [empty] | [empty] | Post-emergence activity (GR80) SORHA (SORHA [20]): phyto; Post-emergence activity (GR80) SETFA (SETFA [21]): [empty]; Post-emergence activity (GR80) PANDI (PANDI [22]): phyto; Post-emergence activity (GR80) SORVU (SORVU): phyto; Post-emergence activity (GR80) BRAPP (BRAPP [23]): [empty]; Post-emergence activity (GR80) DIGSA (DIGSA [24]): phyto |
| CC(CNC(=O)c1cccc(C(F)(F)F)c1)NC(=O)c1cccc(I)c1 (centres unmarked) [Example 59] | phyto | 250 | 1000 g/ha | 500 g/ha | 125 g/ha | 1000 g/ha | 1000 g/ha | phyto | phyto | phyto | phyto | phyto | * (Where herbicidal activity was evident but 80% inhibition was not achieved at the highest rate tested (typically 1000 g/ha), an asterisk (*) is shown) | phyto | [empty] | phyto | [empty] | phyto | [empty] | [empty] | Pre-emergence activity (GR80) on ABUTH (ABUTH [25]): phyto; Pre-emergence activity (GR80) on CONAR (CONAR [26]): phyto; Pre-emergence activity (GR80) on ECHCG (ECHCG [27]): phyto; Pre-emergence activity (GR80) on SORHA (SORHA [28]): phyto; Post-emergence activity (GR80) SORHA (SORHA [20]): [empty]; Post-emergence activity (GR80) SETFA (SETFA [21]): [empty]; Post-emergence activity (GR80) PANDI (PANDI [22]): phyto; Post-emergence activity (GR80) SORVU (SORVU): [empty]; Post-emergence activity (GR80) BRAPP (BRAPP [23]): phyto; Post-emergence activity (GR80) DIGSA (DIGSA [24]): phyto |

Source: US20020052295A1, “Diacyl derivatives of propylene diamine having herbicidal activity” (priority 1999, published 2002)
